Test system: MTOR pathway
Assay: Effects on MTOR pathway: phosphorylation by western blot in N2a cells
Type: cell-based, mouse
Settings: for phosphorylation of RPS6KB1/p70S6K and MTOR: 12 hours; for phosphorylation of RPS6KB1/p70S6K, MTOR and AKT: 12 h, curcumin 10 μM, analogs 1 μM
Procedure: N2a cells were treated with curcumin (Cur, 10 μM), A2, B3 and C1 (1 μM) for 12 h. Torin 1 (1 μM) treatment for 2 h was used as a positive control. […] FIG. 3B is a bar chart showing the expression of phosphorylated (p−) and total RPS6KB1/P70S6K, MTOR and AKT. Data are presented as the mean±SD from three independent experiments. *p<0.05 vs. the control (0.1% DMSO).
N2a cells are treated with E2, E3 and E4 (1 μM) for 12 hours. Torin 1 (1 μM) treatment for 2 hours is used as a positive control. The expression of phosphorylated (p−) and total RPS6KB1/P70S6K and MTOR are shown in Western blotting (FIG. 15A). The phosphorylation of RPS6KB1 and MTOR levels are also quantified (FIG. 15B). Data are presented as the mean±SD from three independent experiments. *p<0.05 vs. the control (0.1% DMSO).
N2a cells are treated with different concentrations of E4 (0-1 μM) and Torin 1 (1 μM) for 6 hours. The expression of phosphorylated (p−) and MTOR are detected by Western blotting (FIG. 23A). The phosphorylation of MTOR levels are also quantified (FIG. 23B). Data are presented as the mean±SD from three independent experiments. *p<0.05 vs. the control (0.1% DMSO).
N2a cells are treated with E4 (1 μM) for indicated times and Torin 1 (1 μM) for 6 hours. The expression of phosphorylated (p−) and total RPS6KB1/P70S6K and MTOR are detected by Western blotting (FIG. 24A). The phosphorylation of RPS6KB1 and MTOR levels are also quantified (FIG. 24B). Data are presented as the mean±SD from three independent experiments. *p<0.05 vs. the control (0.1% DMSO).
N2a, Hela and Hela cells stably expressing 3×-Flag-TFEB are cultured in DMEM supplemented with 10% FBS. SH-SY5Y cells are cultured in DMEM/F12 supplemented with 10% FBS. For drug treatment, the full medium is replaced by fresh Opti-MEM I and then the compounds (in 0.1% DMSO) are added to the cells and incubated for 12 h. Inducible PC12 cells overexpressing SNCA (WT and A53T) (a kind gift from Prof. David C. Rubinsztein at Cambridge University) are grown in DMEM supplemented with 10% horse serum, 5% FBS, 50 μg/ml G418, and 150 μg/ml hygromycin B at 37° C., 10% CO2. Cells are treated with 2 μg/ml doxycycline (Dox) for 24 h to induce SNCA expression. The full medium is changed to Opti-MEM I containing the testing compounds for another 48 h.
Cells are lysed on ice in 1× Lysis Buffer (9803, Life Technologies) with complete protease inhibitor mixture (04693124001, Roche Applied Science). Animal tissues are homogenized in nine volumes of ice-cold PBS supplemented with protease inhibitors. Cytosolic and nuclear fractions are isolated using protocols similar to those described previously. Anti-Flag or TFEB antibody is added to the whole cell lysates and Dynabeads® Protein G (10003D, Life Technologies) is used for immunoprecipitation. Proteins are separated by 10-15% SDS-PAGE, transferred, and blotted with the antibodies described. The blots are then incubated with secondary antibodies or the Clean-Blot IP Detection Reagent (21230, Thermo Scientific) at room temperature for 1 h. The protein signals are detected by ECL kit (32106, Pierce) and quantified using ImageJ software.
N2a and HeLa cells are cultured in DMEM supplemented with 10% FBS. HeLa cells stably expressing 3×-Flag-TFEB are maintained in DMEM supplemented with 10% FBS and 500 μg/mL G418. For drug treatment, the full medium is replaced by fresh Opti-MEM I containing the compounds (in 0.1% DMSO) and incubated for the indicated time periods.
Cells are lysed on ice in 1× Lysis Buffer (9803, Life Technologies) with complete protease inhibitor mixture (04693124001, Roche Applied Science) and phosphatase inhibitor (B15001, Biotool). Cytosolic and nuclear fractions are isolated using protocols similar to those described previously. Proteins are separated by 10-15% SDS-PAGE, transferred, and blotted with the antibodies described. The blots are then incubated with primary and secondary antibodies. […]

Row | SMILES | phosphorylation of RPS6KB1/p70S6K and MTOR (1 μM) | phosphorylation of RPS6KB1/p70S6K, MTOR and AKT | other results
1 | O=C(/C=C/c1ccccc1I)/C=C/c1ccccc1I [E4] | significantly inhibit | – | phosphorylation of MTOR, dose-dependent (0-1 μM, 6 hours, dose-dependent manner): significantly inhibits; phosphorylation of both MTOR and p70S6K, time-dependent (1 μM, 0-6 hours, time-dependent manner): inhibits
2 | O=C(/C=C/c1ccccc1Br)/C=C/c1ccccc1Br [E3] | significantly inhibit | – | –
3 | COc1cc(/C=C/C(=O)CC(=O)/C=C/c2ccc(O)c(OC)c2)ccc1O [curcumin, Curcumin, reference compound] | – | inhibit | –
4 | O=C(/C=C/c1ccc(O)cc1)/C=C/c1ccc(O)cc1 [B3, 1,5-bis(4-hydroxyphenyl)penta-1,4-dien-3-one] | – | inhibit | –
5 | O=C(/C=C/c1cccc(C(F)(F)F)c1)/C=C/c1cccc(C(F)(F)F)c1 [A2, 1,5-bis(3-(trifluoromethyl)phenyl)penta-1,4-dien-3-one] | – | inhibit | –
6 | COc1ccccc1/C=C/C(=O)/C=C/c1ccccc1OC [C1, 1,5-bis(2-methoxyphenyl)penta-1,4-dien-3-one] | – | significantly promotes | –
7 | O=C(/C=C/c1ccccc1Cl)/C=C/c1ccccc1Cl [E2] | significantly inhibit | – | –
